Experimental data published in ChEMBL document CHEMBL1201862, “PubChem BioAssay data set” (2004).
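1) Cells in 96-well plates. 2) Compound, 48 h, 5 concentrations. 3) Linear interpolation between surrounding doses. 4) Unreached endpoint = highest concentration. GI50 is the concentration that inhibits growth by half.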 Active and inactive are the calls of the source. No stated cut-off is given here; in the data, active = GI50 up to about 1.1 µM and inactive = higher.

Experiments:
Assay in all cases: growth of human tumour cells (NCI), 48 h
OVCAR-3 = system: OVCAR-3
CCRF-CEM = system: CCRF-CEM
SF-268 = system: SF-268
SF-295 = system: SF-295
MDA-N = system: MDA-N
PC-3 = system: PC-3
786-0 = system: 786-0
SK-MEL-2 = system: SK-MEL-2
SK-MEL-5 = system: SK-MEL-5
KM12 = system: KM12
UO-31 = system: UO-31
DLD-1 = system: DLD-1
T47D = system: T47D
SR = system: SR
CAKI-1 = system: CAKI-1
RPMI-8226 = system: RPMI-8226
IGROV-1 = system: IGROV-1
OVCAR-4 = system: OVCAR-4
M14 = system: M14
K562 = system: K562

Measured: GI50

N=C1OC(c2cccc(Cl)c2)C(NNS(=O)(=O)c2ccccc2)=C1O (stereo not given)
inactive: OVCAR-3 23.1 µM | CCRF-CEM 2.32 µM | SF-268 39.7 µM | SF-295 57 µM | MDA-N 14.5 µM | PC-3 21.2 µM | 786-0 24.8 µM | SK-MEL-2 24.9 µM | SK-MEL-5 41.7 µM | KM12 47.8 µM | UO-31 26.6 µM | DLD-1 15 µM | T47D 10 µM | SR 2.37 µM | CAKI-1 31.4 µM | RPMI-8226 10.9 µM | IGROV-1 70.5 µM | OVCAR-4 52.5 µM | M14 22.4 µM | K562 3.69 µM

CC(=O)OC1CC[C@@]2(C)C(CC[C@]3(C)C2CC=C2[C@@H]4CC(C)(C)CCC4(C)CCC23C)[C@@]1(C)C(=O)O (stereo not given in full)
inactive: OVCAR-3 15.1 µM | CCRF-CEM 23.4 µM | SF-268 18.2 µM | SF-295 17.9 µM | MDA-N 21.9 µM | PC-3 6.61 µM | 786-0 17.6 µM | SK-MEL-2 15.7 µM | SK-MEL-5 16.9 µM | KM12 12 µM | UO-31 16 µM | DLD-1 10.1 µM | T47D 15.4 µM | SR 22.8 µM | CAKI-1 18.5 µM | RPMI-8226 10.8 µM | IGROV-1 16.4 µM | OVCAR-4 14.9 µM | M14 19.9 µM | K562 19.2 µM

O=C(Nc1ccc(Cl)cc1)NS(=O)(=O)c1ccc2c(c1)CCC2 [SULOFENUR]
inactive: OVCAR-3 24.3 µM | CCRF-CEM 29.9 µM | SF-268 49.2 µM | SF-295 46.7 µM | MDA-N 28 µM | PC-3 19.1 µM | 786-0 35.3 µM | SK-MEL-2 43.8 µM | SK-MEL-5 26.9 µM | KM12 36.1 µM | UO-31 25.1 µM | DLD-1 44.4 µM | T47D 16.4 µM | SR > 57 µM | CAKI-1 42.9 µM | RPMI-8226 24.4 µM | IGROV-1 12.3 µM | OVCAR-4 54.8 µM | M14 37.9 µM | K562 10.2 µM
